ChEMBL document CHEMBL4043190 (Bioorg Med Chem Lett, 2017)
pEC50, pKi: −log10 of the molar value.

Columns and labels:
[1] = target: Substance-P receptor (Homo sapiens) (UniProt P25103); experiment: Inhibition of NK1 (unknown origin) at 10 uM relative to control
[2] = test system: Plasma; experiment: Unbound drug concentration in IL-23/IL-1beta induced C57BL/6J mouse plasma at 100 mg/kg, po preincubated for 30 mins followed by cytokine addition measured after 3.5 hrs post dose; type: ADME, organism-based; settings: in vivo
[3] = Ratio of unbound drug concentration in IL-23/IL-1beta induced C57BL/6J mouse plasma at 30 mg/kg, po to EC50 for JAK2 (unknown origin) assessed as inhibition of EPO-mediated STAT5 phosphorylation; type: organism-based; settings: in vivo
[4] = target: T1, Cyclin-dependent kinase 2 (Homo sapiens, UniProt P24941); settings: 70 nM
[5] = Ratio of unbound drug concentration in IL-23/IL-1beta induced C57BL/6J mouse plasma at 70 mg/kg, po to EC50 for TYK2 (unknown origin) assessed as inhibition of IL-23 induced STAT3 phosphorylation
[6] = test system: Mus musculus; experiment: Antiinflammatory activity in IMQ-induced BALB/c mouse model assessed as reduction in serum IL-17F production at 30 mg/kg, po bid for 5 days; type: functional; design: scale not given: the % may be the effect or the level left
[7] = target: Tyrosine-protein kinase JAK2 (Homo sapiens, UniProt O60674); experiment: Inhibition of JAK2 (unknown origin) assessed as reduction in EPO-mediated STAT5 phosphorylation by cell based readout assay
Sequence of Tyrosine-protein kinase JAK2 (O60674 whole entry): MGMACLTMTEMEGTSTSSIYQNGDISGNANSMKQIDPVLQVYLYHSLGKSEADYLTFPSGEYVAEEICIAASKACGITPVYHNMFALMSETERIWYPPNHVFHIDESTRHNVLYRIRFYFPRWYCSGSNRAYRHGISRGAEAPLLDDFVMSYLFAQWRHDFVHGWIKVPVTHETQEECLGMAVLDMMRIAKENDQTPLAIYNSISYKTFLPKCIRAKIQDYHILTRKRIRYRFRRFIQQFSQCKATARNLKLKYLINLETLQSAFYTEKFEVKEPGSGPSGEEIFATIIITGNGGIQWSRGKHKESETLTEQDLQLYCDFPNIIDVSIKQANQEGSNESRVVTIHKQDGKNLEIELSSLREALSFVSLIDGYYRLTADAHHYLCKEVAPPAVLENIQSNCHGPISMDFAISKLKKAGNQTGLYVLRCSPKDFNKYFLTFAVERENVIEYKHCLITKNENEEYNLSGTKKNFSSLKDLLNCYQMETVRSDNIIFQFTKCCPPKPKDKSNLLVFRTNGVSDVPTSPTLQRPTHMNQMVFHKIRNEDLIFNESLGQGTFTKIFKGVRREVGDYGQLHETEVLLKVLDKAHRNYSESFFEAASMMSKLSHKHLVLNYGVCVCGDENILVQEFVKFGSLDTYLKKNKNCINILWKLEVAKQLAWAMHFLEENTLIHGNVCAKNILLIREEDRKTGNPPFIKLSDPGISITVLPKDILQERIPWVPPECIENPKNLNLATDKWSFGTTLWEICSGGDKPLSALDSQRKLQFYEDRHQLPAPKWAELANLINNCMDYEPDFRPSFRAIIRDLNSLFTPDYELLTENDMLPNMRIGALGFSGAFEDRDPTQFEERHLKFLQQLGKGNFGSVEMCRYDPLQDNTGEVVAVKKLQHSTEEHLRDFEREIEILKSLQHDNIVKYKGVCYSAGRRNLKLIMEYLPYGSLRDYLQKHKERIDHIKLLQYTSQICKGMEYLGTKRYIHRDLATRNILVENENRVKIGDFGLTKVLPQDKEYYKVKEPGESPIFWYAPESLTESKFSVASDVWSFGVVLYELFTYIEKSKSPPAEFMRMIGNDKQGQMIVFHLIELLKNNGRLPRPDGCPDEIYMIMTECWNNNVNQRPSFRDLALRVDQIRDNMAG

[8] = Ratio of unbound drug concentration in IL-23/IL-1beta induced C57BL/6J mouse plasma at 70 mg/kg, po to EC50 for JAK2 (unknown origin) assessed as inhibition of EPO-mediated STAT5 phosphorylation; type: organism-based; settings: in vivo
[9] = test system: Mus musculus; experiment: Toxicity in IMQ-induced BALB/c mouse model assessed as reduction in platelet levels at 30 mg/kg, po bid for 5 days; type: organism-based; design: scale not given: the % may be the effect or the level left; settings: in vivo, 120 h
[10] = test system: Plasma; experiment: Unbound drug concentration in IL-23/IL-1beta induced C57BL/6J mouse plasma at 70 mg/kg, po preincubated for 30 mins followed by cytokine addition measured after 3.5 hrs post dose; type: ADME, organism-based; settings: in vivo
[11] = target: T2, Non-receptor tyrosine-protein kinase TYK2 (Homo sapiens, UniProt P29597); experiment: Inhibition of TYK2 (unknown origin) by biochemical assay
T2 sequence (P29597 whole entry): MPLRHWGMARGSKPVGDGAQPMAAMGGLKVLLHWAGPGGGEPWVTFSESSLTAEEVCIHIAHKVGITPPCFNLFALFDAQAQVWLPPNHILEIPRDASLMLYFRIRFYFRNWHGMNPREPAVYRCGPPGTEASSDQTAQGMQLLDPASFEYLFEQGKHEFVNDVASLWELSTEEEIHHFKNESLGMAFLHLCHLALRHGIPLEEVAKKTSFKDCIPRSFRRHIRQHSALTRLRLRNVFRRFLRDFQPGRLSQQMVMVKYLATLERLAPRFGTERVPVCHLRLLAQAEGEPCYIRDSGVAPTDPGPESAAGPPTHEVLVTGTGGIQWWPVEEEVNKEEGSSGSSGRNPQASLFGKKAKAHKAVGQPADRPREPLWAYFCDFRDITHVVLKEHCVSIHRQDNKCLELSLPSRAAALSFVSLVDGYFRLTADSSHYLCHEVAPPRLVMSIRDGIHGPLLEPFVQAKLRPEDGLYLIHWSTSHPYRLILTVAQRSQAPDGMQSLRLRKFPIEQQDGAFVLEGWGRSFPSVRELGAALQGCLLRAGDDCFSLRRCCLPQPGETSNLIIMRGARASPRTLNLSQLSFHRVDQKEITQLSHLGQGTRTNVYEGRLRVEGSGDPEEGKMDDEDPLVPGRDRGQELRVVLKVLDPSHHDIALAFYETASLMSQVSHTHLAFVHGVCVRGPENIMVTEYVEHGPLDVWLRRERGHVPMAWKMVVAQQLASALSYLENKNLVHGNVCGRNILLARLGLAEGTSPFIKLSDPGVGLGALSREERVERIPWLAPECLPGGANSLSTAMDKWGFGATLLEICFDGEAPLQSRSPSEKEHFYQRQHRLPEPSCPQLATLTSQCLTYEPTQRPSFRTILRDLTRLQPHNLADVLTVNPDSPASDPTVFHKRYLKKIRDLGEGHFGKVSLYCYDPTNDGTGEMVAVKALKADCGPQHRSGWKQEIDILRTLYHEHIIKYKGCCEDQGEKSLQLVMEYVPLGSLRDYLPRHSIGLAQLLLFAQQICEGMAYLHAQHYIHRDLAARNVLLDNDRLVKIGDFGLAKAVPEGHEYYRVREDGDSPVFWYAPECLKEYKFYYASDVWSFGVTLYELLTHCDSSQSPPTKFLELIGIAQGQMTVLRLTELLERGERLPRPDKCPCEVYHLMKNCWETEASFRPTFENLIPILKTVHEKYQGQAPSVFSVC

[12] = Ratio of unbound drug concentration in IL-23/IL-1beta induced C57BL/6J mouse plasma at 100 mg/kg, po to EC50 for TYK2 (unknown origin) assessed as inhibition of IL-23 induced STAT3 phosphorylation
[13] = Ratio of unbound drug concentration in IL-23/IL-1beta induced C57BL/6J mouse plasma at 100 mg/kg, po to EC50 for JAK2 (unknown origin) assessed as inhibition of EPO-mediated STAT5 phosphorylation; type: organism-based; settings: in vivo
[14] = Permeability from apical side to basolateral side in MDCK cells; type: ADME, cell-based, Canis lupus familiaris; settings: dog, read-out: permeability
[15] = Protein binding in mouse plasma; type: ADME, cell-free; settings: read-out: PPB (converted)
[16] = test system: Mus musculus; experiment: Toxicity in IMQ-induced BALB/c mouse model assessed as reduction in platelet levels at 70 mg/kg, po bid for 5 days; type: organism-based; design: scale not given: the % may be the effect or the level left; settings: in vivo, 120 h
[17] = target: Cyclin-dependent kinase 9 (Homo sapiens, UniProt P50750); experiment: Inhibition of CDK9 (unknown origin)
Sequence of Cyclin-dependent kinase 9 (P50750 whole entry): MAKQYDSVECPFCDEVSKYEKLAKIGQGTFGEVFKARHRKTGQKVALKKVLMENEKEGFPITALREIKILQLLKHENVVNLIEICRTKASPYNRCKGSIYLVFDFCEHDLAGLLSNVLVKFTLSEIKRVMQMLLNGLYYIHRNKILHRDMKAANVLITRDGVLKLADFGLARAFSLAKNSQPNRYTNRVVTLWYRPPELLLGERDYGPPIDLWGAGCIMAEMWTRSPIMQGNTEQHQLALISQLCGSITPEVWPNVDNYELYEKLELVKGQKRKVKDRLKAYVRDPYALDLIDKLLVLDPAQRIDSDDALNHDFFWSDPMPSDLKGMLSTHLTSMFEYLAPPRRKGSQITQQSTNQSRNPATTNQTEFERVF

[18] = Protein binding in human plasma; type: ADME, cell-free; settings: read-out: PPB (converted)
[19] = test system: Mus musculus; experiment: Antiinflammatory activity in IMQ-induced BALB/c mouse model assessed as reduction in serum IL-17F production at 100 mg/kg, po bid for 5 days; type: functional; design: scale not given: the % may be the effect or the level left
[20] = test system: Mus musculus; experiment: Anti-inflammatory activity in IL-23/IL-1beta induced C57BL/6J mouse assessed as inhibition of IL-17F level in serum pretreated po for 30 mins followed by cytokine addition measured after 3 hrs by ELISA; type: functional, organism-based
[21] = test system: Plasma; experiment: Unbound drug concentration in IL-23/IL-1beta induced C57BL/6J mouse plasma at 30 mg/kg, po preincubated for 30 mins followed by cytokine addition measured after 3.5 hrs post dose; type: ADME, organism-based; settings: in vivo
[22] = target: T1, Cyclin-dependent kinase 2; experiment: Inhibition of CDK2 (unknown origin)
[23] = test system: Mus musculus; experiment: Antiinflammatory activity in IMQ-induced BALB/c mouse model assessed as reduction in serum IL-17F production at 70 mg/kg, po bid for 5 days; type: functional; design: scale not given: the % may be the effect or the level left
[24] = target: T2, Non-receptor tyrosine-protein kinase TYK2; experiment: Inhibition of TYK2 (unknown origin) assessed as reduction in IL-23 induced STAT3 phosphorylation by cell based ELISA
[25] = target: T3, Tyrosine-protein kinase JAK3 (Homo sapiens, UniProt P52333); experiment: Inhibition of JAK3 (unknown origin)
T3 sequence (P52333 whole entry): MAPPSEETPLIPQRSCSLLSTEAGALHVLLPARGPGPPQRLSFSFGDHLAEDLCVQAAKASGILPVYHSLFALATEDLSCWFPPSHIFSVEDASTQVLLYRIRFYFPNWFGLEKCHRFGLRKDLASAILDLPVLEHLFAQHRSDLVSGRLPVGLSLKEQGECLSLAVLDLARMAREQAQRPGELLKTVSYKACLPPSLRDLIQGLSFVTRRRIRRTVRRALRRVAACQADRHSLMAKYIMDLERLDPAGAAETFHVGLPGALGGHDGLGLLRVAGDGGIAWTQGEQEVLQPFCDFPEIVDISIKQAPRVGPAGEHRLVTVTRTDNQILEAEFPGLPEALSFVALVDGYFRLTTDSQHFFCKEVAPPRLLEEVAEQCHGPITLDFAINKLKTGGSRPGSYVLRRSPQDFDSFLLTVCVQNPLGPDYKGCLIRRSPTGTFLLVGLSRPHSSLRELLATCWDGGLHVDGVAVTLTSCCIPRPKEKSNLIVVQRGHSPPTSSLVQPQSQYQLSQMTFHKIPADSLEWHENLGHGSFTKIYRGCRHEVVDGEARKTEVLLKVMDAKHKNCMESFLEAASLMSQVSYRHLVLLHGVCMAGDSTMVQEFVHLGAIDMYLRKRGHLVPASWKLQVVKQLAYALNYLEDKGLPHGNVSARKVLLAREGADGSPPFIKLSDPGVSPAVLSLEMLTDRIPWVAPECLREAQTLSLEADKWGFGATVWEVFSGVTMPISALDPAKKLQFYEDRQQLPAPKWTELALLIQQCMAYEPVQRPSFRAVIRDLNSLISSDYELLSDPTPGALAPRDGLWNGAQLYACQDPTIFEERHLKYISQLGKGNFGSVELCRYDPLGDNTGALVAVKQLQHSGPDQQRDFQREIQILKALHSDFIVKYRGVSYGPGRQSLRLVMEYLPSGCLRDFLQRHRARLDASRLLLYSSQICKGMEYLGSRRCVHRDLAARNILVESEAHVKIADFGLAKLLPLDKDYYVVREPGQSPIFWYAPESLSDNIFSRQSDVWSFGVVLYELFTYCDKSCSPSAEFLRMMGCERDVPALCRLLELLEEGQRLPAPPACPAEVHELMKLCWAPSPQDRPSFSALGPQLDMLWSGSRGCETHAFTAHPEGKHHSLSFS

[26] = organism: Homo sapiens; experiment: Selectivity ratio of Ki for JAK2 (unknown origin) to Ki for TYK2 (unknown origin)
[27] = Clearance in dog; type: ADME, Canis lupus familiaris; settings: in vivo

Sequence of Substance-P receptor (Homo sapiens) (P25103 whole entry): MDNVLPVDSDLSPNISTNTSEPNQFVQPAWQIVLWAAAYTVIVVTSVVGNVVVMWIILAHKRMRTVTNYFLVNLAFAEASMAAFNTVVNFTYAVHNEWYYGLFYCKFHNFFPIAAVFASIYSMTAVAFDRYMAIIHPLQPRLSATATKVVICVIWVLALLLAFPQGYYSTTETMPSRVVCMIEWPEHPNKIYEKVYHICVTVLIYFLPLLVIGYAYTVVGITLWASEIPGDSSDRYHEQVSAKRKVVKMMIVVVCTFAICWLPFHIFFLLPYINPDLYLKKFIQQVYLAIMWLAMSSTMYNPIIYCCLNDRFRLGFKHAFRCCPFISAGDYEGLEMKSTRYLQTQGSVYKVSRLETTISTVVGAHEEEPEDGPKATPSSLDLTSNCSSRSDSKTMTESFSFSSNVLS

Cc1cc(Nc2nccc3nc(-c4c(Cl)cc(C#N)cc4Cl)[nH]c23)ncn1
inhibition [1]: 67% | Cp(f) [2]: 2600 nM | Ratio [3]: 0.61 | inhibition [4]: > 50% | Ratio [5]: 23 | Activity [6]: 74% | pEC50 [7]: 5.85 | Ratio [8]: 1.1 | Activity [9]: 21% | Cp(f) [10]: 1500 nM | pKi [11]: 9.15 | Ratio [12]: 39 | Ratio [13]: 1.9 | Papp A→B [14]: 12.7 ×10⁻⁶ cm/s | fraction unbound [15]: 0.034 | Activity [16]: 55% | pKi [17]: 6.97 | fraction unbound [18]: 0.028 | Activity [19]: 99% | inhibition [20]: Dose-dependent effect | Cp(f) [21]: 860 nM | pKi [22]: 7.05 | Activity [23]: 100% | pEC50 [24]: 7.18 | pKi [25]: 7.24 | Ratio Ki [26]: 31 | clearance [27]: 3.6 mL/min/kg
